Experimental data as given in patent publication US9834550B2, “Pyridopyrimidinone compounds for modulating the catalytic activity of histone lysine demethylases (KDMs)” (Dong-A Socio Holdings Co., Ltd., priority 2014, dated 2017).

Target: T1, Recombinant human JARID1B/KDM5B (Homo sapiens, UniProt Q9UGL1)
T1 construct: purchased Active Motif 31432; host or cells: Sf9 insect cells
Test: LANCE Ultra TR-FRET demethylase assay with FLAG-tagged JARID1B
Type: biochemical
Conditions: 100 nM compound; 500 nM biotinylated H3K4me3 peptide substrate
From the text: FLAG-tagged JARID1B (also known as KDM5B) protein was screened against more than 170 compounds. For this compound screening, LANCE Ultra time-resolved fluorescence resonance energy transfer (TR-FRET) assay was employed using an europoium (Eu)-labeled antibody that can specifically recognize mono- or dimethylated peptides (H3K4me2/1) and ULight-streptavidin (ULight-SA), a small molecule fluorescent dye. When irradiated at 340 nm, the energy from the Eu donor is transferred to the ULight acceptor dye which, in turn, emits light primarily at 665 nm. The ratio between the intensity of primary emission at 665 nm and that of secondary emission at 590 nm was used to quantify the level of lysine methylation. As JARID1B removes more methyl moieties from tri-methylated substrate peptides (H3K4me3), the ratio increases until the enzyme reaction is terminated. In case, therefore, the compounds disrupt the enzymatic activity completely, the ratio becomes equal to a background value.
Recombinant human JARID1B/KDM5B (accession number NP_006609) of molecular weight 179.9 KDa was expressed in Sf9 insect cells and contains an N-terminal FLAG tag. The enzyme was obtained from Active Motif (Catalog No. 31432). The tri-methylated histone substrate peptide of purity greater than 95% was a synthetic peptide in which the first 21 amino acids correspond to the human histone H3 sequence with three extra amino acids and a biotin motif (GGK-biotin) linked to the C-terminus [sequence: ART-K (Me3)-QTARKSTGGKAPRKQLA-GGK-biotin-OH], (AnaSpec, Fremont, Calif. Catalog. No. ANA-1413). The reference inhibitory compound tranylcypromine (or trans-2-phenylcyclopropylamine hydrochloride, also known as, 2-PCPA) was purchased from Sigma (St. Louis, Mo. Cat. no. P8511). ULight-labeled streptavidin (ULight-SA, Catalog no. TRF0102), Eu-W1024-labeled anti-methyl-Histone H3 Lysine 4 (H3K4me1-2) Antibody (Catalog no. TRF0402), and LANCE detection buffer 10× (Catalog no. CR97-100) were obtained from PerkinElmer (Montreal, Quebec, Canada). The TR-FRET experiments were carried out in white, low-volume 384-wellplates purchased from PerkinElmer (ProxiPlate-384 Plus, Catalog no. 6008280).
The TR-FRET signal was measured in the presence both of the bio-H3K4me3 peptide and FLAG-JARID1B by detecting any H3K4me2/1 peptide produced in the assay system. Assays using only the bio-H3K4me2 peptide were served as a positive control. Robust enzymatic progressions were observed by using JARID1B at concentrations ranging from 10 to 30 nM. In a typical TR-FRET experiment, JARID1B was pre-incubated with or without 20 uM, 1 uM, or 0.1 uM of test-compounds (containing 1% DMSO final) for […]. The enzymatic reactions were initiated by the addition of 500 nM biotinylated H3K4me3 peptide substrate plus 500 uM of 2-OG, 25 uM Fe(II) and 2 mM ascorbate. The reaction buffer also contained 50 mM Hepes (pH7.5), 0.01% (v/v) Tween 20, and 50 mM NaCl. The reaction mixture was incubated for […] at room temperature before reading on an EnVision plate reader (PerkinElmer, Waltham, Mass.).

T1 sequence (Q9UGL1 whole entry): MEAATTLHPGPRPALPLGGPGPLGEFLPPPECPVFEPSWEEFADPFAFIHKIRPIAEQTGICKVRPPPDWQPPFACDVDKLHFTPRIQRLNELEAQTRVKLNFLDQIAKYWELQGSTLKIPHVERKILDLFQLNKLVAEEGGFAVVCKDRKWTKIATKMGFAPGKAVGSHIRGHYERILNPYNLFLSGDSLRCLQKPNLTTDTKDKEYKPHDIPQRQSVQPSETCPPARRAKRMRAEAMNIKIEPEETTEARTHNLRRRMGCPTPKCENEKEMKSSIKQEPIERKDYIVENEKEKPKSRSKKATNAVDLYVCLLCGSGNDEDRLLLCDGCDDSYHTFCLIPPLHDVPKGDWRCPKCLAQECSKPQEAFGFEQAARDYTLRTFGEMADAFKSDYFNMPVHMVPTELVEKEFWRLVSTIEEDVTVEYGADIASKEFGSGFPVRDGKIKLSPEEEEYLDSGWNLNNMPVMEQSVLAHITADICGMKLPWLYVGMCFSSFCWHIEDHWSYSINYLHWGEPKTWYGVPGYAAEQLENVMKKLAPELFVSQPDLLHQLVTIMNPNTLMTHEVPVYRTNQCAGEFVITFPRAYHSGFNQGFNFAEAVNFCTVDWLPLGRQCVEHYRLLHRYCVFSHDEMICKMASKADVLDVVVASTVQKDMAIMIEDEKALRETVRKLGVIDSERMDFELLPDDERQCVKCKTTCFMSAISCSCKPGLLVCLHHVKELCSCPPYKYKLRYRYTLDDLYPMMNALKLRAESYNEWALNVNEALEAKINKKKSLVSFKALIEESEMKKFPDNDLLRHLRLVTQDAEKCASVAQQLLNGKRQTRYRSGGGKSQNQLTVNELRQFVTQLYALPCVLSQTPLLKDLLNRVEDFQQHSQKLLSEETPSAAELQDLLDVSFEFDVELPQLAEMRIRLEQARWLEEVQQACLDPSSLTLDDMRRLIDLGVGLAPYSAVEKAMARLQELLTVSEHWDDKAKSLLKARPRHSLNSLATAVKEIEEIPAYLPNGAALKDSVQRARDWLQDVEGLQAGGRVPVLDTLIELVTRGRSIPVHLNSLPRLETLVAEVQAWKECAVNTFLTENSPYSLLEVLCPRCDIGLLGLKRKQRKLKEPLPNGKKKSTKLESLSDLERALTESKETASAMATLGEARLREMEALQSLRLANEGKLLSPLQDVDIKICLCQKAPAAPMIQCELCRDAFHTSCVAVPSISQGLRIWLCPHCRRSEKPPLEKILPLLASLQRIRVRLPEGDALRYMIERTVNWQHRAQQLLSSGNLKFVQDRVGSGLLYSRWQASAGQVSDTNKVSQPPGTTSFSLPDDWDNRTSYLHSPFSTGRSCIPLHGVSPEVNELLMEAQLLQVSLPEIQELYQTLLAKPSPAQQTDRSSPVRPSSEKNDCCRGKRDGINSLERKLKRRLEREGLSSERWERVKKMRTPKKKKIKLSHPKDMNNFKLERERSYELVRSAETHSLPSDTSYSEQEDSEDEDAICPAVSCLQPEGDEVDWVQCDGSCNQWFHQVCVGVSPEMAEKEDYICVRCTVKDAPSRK

Row | Compound | inhibition at 0.1 µM [%]
1 | CCN1CCC(CNCc2nccc3c(=O)[nH]c(COc4ccc(Cc5ccccc5)cc4)nc23)C1 (centres unmarked) [Example 142, 2-((4-benzylphenoxy)methyl)-8-((((1-ethylpyrrolidin-3-yl)methyl)amino)methyl)pyrido[3,4-d]pyrimidin-4(3H)-one] | > 50
2 | O=c1[nH]c(COCc2ccccc2)nc2c(CNCC3CCNCC3)nccc12 [Example 202, 2-((benzyloxy)methyl)-8-(((piperidin-4-ylmethyl)amino)methyl)pyrido[3,4-d]pyrimidin-4(3H)-one] | 20 to 50
3 | Cc1ccc(OCc2nc3c(CNCC4CCNCC4)nccc3c(=O)[nH]2)cc1C [Example 136, 2-((3,4-dimethylphenoxy)methyl)-8-(((piperidin-4-ylmethyl)amino)methyl)pyrido[3,4-d]pyrimidin-4(3H)-one] | 20 to 50
4 | CCN(CCN(C)C)C(=O)CNCc1nccc2c(=O)[nH]c(COc3ccc(F)c(Cl)c3)nc12 [Example 221, 2-(((2-((3-chloro-4-fluorophenoxy)methyl)-4-oxo-3,4-dihydropyrido[3,4-d]pyrimidin-8-yl)methyl)amino)-N-(2-(dimethylamino)ethyl)-N-ethylacetamide] | > 50
5 | CC(C)N1CCC(CNCc2nccc3c(=O)[nH]c(COc4ccc(F)c(Cl)c4)nc23)CC1 [Example 168, 2-((3-chloro-4-fluorophenoxy)methyl)-8-((((1-isopropylpiperidin-4-yl)methyl)amino)methyl)pyrido[3,4-d]pyrimidin-4(3H)-one] | > 50
6 | O=c1[nH]c(COc2ccncc2)nc2c(CNCC3CCN(Cc4ccccc4)CC3)nccc12 [Example 110, 8-((((1-benzylpiperidin-4-yl)methyl)amino)methyl)-2-((pyridin-4-yloxy)methyl)pyrido[3,4-d]pyrimidin-4(3H)-one] | > 50
7 | Cc1cccc(CCNCc2nccc3c(=O)[nH]c(COc4ccc(F)c(Cl)c4)nc23)n1 [Example 184, 2-((3-chloro-4-fluorophenoxy)methyl)-8-(((2-(6-methylpyridin-2-yl)ethyl)amino)methyl)pyrido[3,4-d]pyrimidin-4(3H)-one] | < 20
8 | Cc1ccc(OCc2nc3c(CNCC4CCNCC4)nccc3c(=O)[nH]2)cc1 [Example 120, 8-(((piperidin-4-ylmethyl)amino)methyl)-2-((p-tolyloxy)methyl)pyrido[3,4-d]pyrimidin-4(3H)-one] | 20 to 50
9 | O=C(CC1CCNCC1)NCc1nccc2c(=O)[nH]c(COc3ccc(F)c(Cl)c3)nc12 [Example 240, N-((2-((3-chloro-4-fluorophenoxy)methyl)-4-oxo-3,4-dihydropyrido[3,4-d]pyrimidin-8-yl)methyl)-2-(piperidin-4-yl)acetamide] | < 20
10 | C[C@H](Oc1ccc(F)c(Cl)c1)c1nc2c(CNCC3CCN(C)CC3)nccc2c(=O)[nH]1 [Example 220, (S)-2-(1-(3-chloro-4-fluorophenoxy)ethyl)-8-((((1-methylpiperidin-4-yl)methyl)amino)methyl)pyrido[3,4-d]pyrimidin-4(3H)-one] | > 50
11 | CN1CCC(CNCc2nccc3c(=O)[nH]c(C4CCc5ccccc5O4)nc23)CC1 (centres unmarked) [Example 200, 2-(chroman-2-yl)-8-((((1-methylpiperidin-4-yl)methyl)amino)methyl)pyrido[3,4-d]pyrimidin-4(3H)-one] | 20 to 50
12 | CN1CCC(CNCc2nccc3c(=O)[nH]c(COc4ccc(F)c(Cl)c4)nc23)CC1 [Example 160, 2-((3-chloro-4-fluorophenoxy)methyl)-8-((((1-methylpiperidin-4-yl)methyl)amino)methyl)pyrido[3,4-d]pyrimidin-4(3H)-one] | > 50
13 | O=c1[nH]c(COc2cccc(Cl)c2Cl)nc2c(CNCC3CCNCC3)nccc12 [Example 113, 2-((2,3-dichlorophenoxy)methyl)-8-(((piperidin-4-ylmethyl)amino)methyl)pyrido[3,4-d]pyrimidin-4(3H)-one] | 20 to 50
14 | CN1CCC(CNC(=O)CNCc2nccc3c(=O)[nH]c(COc4ccc(F)c(Cl)c4)nc23)C1 (centres unmarked) [Example 227, 2-(((2-((3-chloro-4-fluorophenoxy)methyl)-4-oxo-3,4-dihydropyrido[3,4-d]pyrimidin-8-yl)methyl)amino)-N-((1-methylpyrrolidin-3-yl)methyl)acetamide] | 20 to 50
15 | O=c1[nH]c(COc2cccc(Cl)c2)nc2c(CNCC3CCN(Cc4ccccc4)CC3)nccc12 [Example 106, 8-((((1-benzylpiperidin-4-yl)methyl)amino)methyl)-2-((3-chlorophenoxy)methyl)pyrido[3,4-d]pyrimidin-4(3H)-one] | > 50
16 | O=c1[nH]cnc2c(CNCC3CCCN(Cc4ccccc4)C3)nccc12 (centres unmarked) [Example 101, 8-((((1-benzylpiperidin-3-yl)methyl)amino)methyl)pyrido[3,4-d]pyrimidin-4(3H)-one] | 20 to 50
17 | O=C(CNCc1nccc2c(=O)[nH]c(COc3ccc(F)c(Cl)c3)nc12)N1CCOCC1 [Example 225, 2-((3-chloro-4-fluorophenoxy)methyl)-8-(((2-morpholino-2-oxoethyl)amino)methyl)pyrido[3,4-d]pyrimidin-4(3H)-one] | 20 to 50
18 | CC(Oc1ccc(Cc2ccccc2)cc1)c1nc2c(CNC[C@H]3CCNC3)nccc2c(=O)[nH]1 (stereo partly drawn) [Example 213, 2-(1-(4-benzylphenoxy)ethyl)-8-(((((S)-pyrrolidin-3-yl)methyl)amino)methyl)pyrido[3,4-d]pyrimidin-4(3H)-one] | 20 to 50
19 | O=c1[nH]c(COc2ccc(F)c(Cl)c2)nc2c(CNCc3ccnc(Cl)c3)nccc12 [Example 182, 2-((3-chloro-4-fluorophenoxy)methyl)-8-((((2-chloropyridin-4-yl)methyl)amino)methyl)pyrido[3,4-d]pyrimidin-4(3H)-one] | 20 to 50
20 | O=c1[nH]c(COc2cccc(CNCCN3CCOCC3)c2)nc2cnccc12 [Example 45, 2-((3-(((2-morpholinoethyl)amino)methyl)phenoxy)methyl)pyrido[3,4-d]pyrimidin-4(3H)-one] | < 20
21 | CN1CCC(CNCc2nccc3c(=O)[nH]c(COc4ccc(Cc5ccccc5)cc4)nc23)CC1 [Example 152, 2-((4-benzylphenoxy)methyl)-8-((((1-methylpiperidin-4-yl)methyl)amino)methyl)pyrido[3,4-d]pyrimidin-4(3H)-one] | > 50
22 | Cc1cccc(OCc2nc3c(CNCC4CCNCC4)nccc3c(=O)[nH]2)c1 [Example 119, 8-(((piperidin-4-ylmethyl)amino)methyl)-2-((m-tolyloxy)methyl)pyrido[3,4-d]pyrimidin-4(3H)-one] | 20 to 50
23 | O=c1[nH]c(COc2ccc(Cl)c(F)c2)nc2c(CNCC3CCNCC3)nccc12 [Example 127, 2-((4-chloro-3-fluorophenoxy)methyl)-8-(((piperidin-4-ylmethyl)amino)methyl)pyrido[3,4-d]pyrimidin-4(3H)-one] | 20 to 50
24 | O=c1[nH]c(COc2ccc(Cl)cc2Cl)nc2c(CNCC3CCNCC3)nccc12 [Example 114, 2-((2,4-dichlorophenoxy)methyl)-8-(((piperidin-4-ylmethyl)amino)methyl)pyrido[3,4-d]pyrimidin-4(3H)-one] | 20 to 50
25 | O=c1[nH]c(COc2ccc(Cc3ccccc3)cc2)nc2c(CNCC3CCOCC3)nccc12 [Example 149, 2-((4-benzylphenoxy)methyl)-8-((((tetrahydro-2H-pyran-4-yl)methyl)amino)methyl)pyrido[3,4-d]pyrimidin-4(3H)-one] | > 50
26 | CN(C)C(=O)c1ccc(CNCc2nccc3c(=O)[nH]c(COc4ccc(F)c(Cl)c4)nc23)o1 [Example 174, 5-((((2-((3-chloro-4-fluorophenoxy)methyl)-4-oxo-3,4-dihydropyrido[3,4-d]pyrimidin-8-yl)methyl)amino)methyl)-N,N-dimethylfuran-2-carboxamide] | 20 to 50
